Reference: ChEMBL document CHEMBL4007388, “Synthesis and antiproliferative activity of monocationic arylthiophene derivatives” (Eur J Med Chem, 2017)

Key:
CCRF-CEM = assay: Growth inhibition of human CCRF-CEM cells incubated for 48 hrs by sulforhodamine B assay; type: functional
HL-60(TB) = assay: Growth inhibition of human HL-60(TB) cells incubated for 48 hrs by sulforhodamine B assay; type: functional; details: HL-60, 48 h
RPMI-8226 = assay: Growth inhibition of human RPMI8226 cells incubated for 48 hrs by sulforhodamine B assay; type: functional; details: RPMI-8226, 48 h
SR = assay: Growth inhibition of human SR cells incubated for 48 hrs by sulforhodamine B assay; type: functional
HOP-62 = assay: Growth inhibition of human HOP62 cells incubated for 48 hrs by sulforhodamine B assay; type: functional; details: HOP-62, 48 h
HOP-92 = assay: Growth inhibition of human HOP92 cells incubated for 48 hrs by sulforhodamine B assay; type: functional; details: HOP-92, 48 h
NCI-H226 = assay: Growth inhibition of human NCI-H226 cells incubated for 48 hrs by sulforhodamine B assay; type: functional; details: NCI-H226, 48 h
NCI-H23 = assay: Growth inhibition of human NCI-H23 cells incubated for 48 hrs by sulforhodamine B assay; type: functional; details: NCI-H23, 48 h
NCI-H460 = assay: Growth inhibition of human NCI-H460 cells incubated for 48 hrs by sulforhodamine B assay; type: functional; details: NCI-H460, 48 h
NCI-H522 = assay: Growth inhibition of human NCI-H522 cells incubated for 48 hrs by sulforhodamine B assay; type: functional; details: NCI-H522, 48 h
COLO 205 = assay: Growth inhibition of human COLO205 cells incubated for 48 hrs by sulforhodamine B assay; type: functional; details: COLO 205, 48 h
HCC 2998 = assay: Growth inhibition of human HCC2998 cells incubated for 48 hrs by sulforhodamine B assay; type: functional; details: HCC 2998, 48 h
HCT-116 = assay: Growth inhibition of human HCT116 cells incubated for 48 hrs by sulforhodamine B assay; type: functional; details: HCT-116, 48 h
HCT-15 = assay: Growth inhibition of human HCT15 cells incubated for 48 hrs by sulforhodamine B assay; type: functional; details: HCT-15, 48 h
HT-29 = assay: Growth inhibition of human HT-29 cells incubated for 48 hrs by sulforhodamine B assay; type: functional; details: HT-29, 48 h
KM12 = assay: Growth inhibition of human KM12 cells incubated for 48 hrs by sulforhodamine B assay; type: functional; details: KM12, 48 h
SW-620 = assay: Growth inhibition of human SW620 cells incubated for 48 hrs by sulforhodamine B assay; type: functional; details: SW-620, 48 h
SF-539 = assay: Growth inhibition of human SF539 cells incubated for 48 hrs by sulforhodamine B assay; type: functional; details: SF-539, 48 h
SNB-19 = assay: Growth inhibition of human SNB19 cells incubated for 48 hrs by sulforhodamine B assay; type: functional; details: SNB-19, 48 h
SNB-75 = assay: Growth inhibition of human SNB75 cells incubated for 48 hrs by sulforhodamine B assay; type: functional; details: SNB-75, 48 h
U-251 = assay: Growth inhibition of human U251 cells incubated for 48 hrs by sulforhodamine B assay; type: functional; details: U-251, 48 h
Malme-3M = assay: Growth inhibition of human MALME-3M cells incubated for 48 hrs by sulforhodamine B assay; type: functional
SK-MEL-2 = assay: Growth inhibition of human SK-MEL-2 cells incubated for 48 hrs by sulforhodamine B assay; type: functional; details: SK-MEL-2, 48 h
SK-MEL-28 = assay: Growth inhibition of human SK-MEL-28 cells incubated for 48 hrs by sulforhodamine B assay; type: functional; details: SK-MEL-28, 48 h
SK-MEL-5 = assay: Growth inhibition of human SK-MEL-5 cells incubated for 48 hrs by sulforhodamine B assay; type: functional; details: SK-MEL-5, 48 h
UACC-257 = assay: Growth inhibition of human UACC257 cells incubated for 48 hrs by sulforhodamine B assay; type: functional; details: UACC-257, 48 h
UACC-62 = assay: Growth inhibition of human UACC62 cells incubated for 48 hrs by sulforhodamine B assay; type: functional; details: UACC-62, 48 h
IGROV-1 = assay: Growth inhibition of human IGROV1 cells incubated for 48 hrs by sulforhodamine B assay; type: functional; details: IGROV-1, 48 h
OVCAR-3 = assay: Growth inhibition of human OVCAR3 cells incubated for 48 hrs by sulforhodamine B assay; type: functional; details: OVCAR-3, 48 h
OVCAR-8 = assay: Growth inhibition of human OVCAR8 cells incubated for 48 hrs by sulforhodamine B assay; type: functional; details: OVCAR-8, 48 h
NCI/ADR-RES = assay: Growth inhibition of human NCI/ADR-RES cells incubated for 48 hrs by sulforhodamine B assay; type: functional
SK-OV-3 = assay: Growth inhibition of human SKOV3 cells incubated for 48 hrs by sulforhodamine B assay; type: functional; details: SK-OV-3, 48 h
A498 = assay: Growth inhibition of human A498 cells incubated for 48 hrs by sulforhodamine B assay; type: functional; details: A498, 48 h
ACHN = assay: Growth inhibition of human ACHN cells incubated for 48 hrs by sulforhodamine B assay; type: functional
CAKI-1 = assay: Growth inhibition of human Caki1 cells incubated for 48 hrs by sulforhodamine B assay; type: functional; details: CAKI-1, 48 h
RXF 393 = assay: Growth inhibition of human RXF393 cells incubated for 48 hrs by sulforhodamine B assay; type: functional; details: RXF 393, 48 h
SN12C = assay: Growth inhibition of human SN12C cells incubated for 48 hrs by sulforhodamine B assay; type: functional
TK-10 = assay: Growth inhibition of human TK10 cells incubated for 48 hrs by sulforhodamine B assay; type: functional; details: TK-10, 48 h
UO-31 = assay: Growth inhibition of human UO31 cells incubated for 48 hrs by sulforhodamine B assay; type: functional; details: UO-31, 48 h
DU-145 = assay: Growth inhibition of human DU145 cells incubated for 48 hrs by sulforhodamine B assay; type: functional; details: DU-145, 48 h
Hs-578T = assay: Growth inhibition of human Hs 578T cells incubated for 48 hrs by sulforhodamine B assay; type: functional
BT-549 = assay: Growth inhibition of human BT549 cells incubated for 48 hrs by sulforhodamine B assay; type: functional; details: BT-549, 48 h
MDA-MB-468 = assay: Growth inhibition of human MDA-MB-468 cells incubated for 48 hrs by sulforhodamine B assay; type: functional; details: MDA-MB-468, 48 h
WI-38 = assay: Cytotoxicity against human WI38 cells assessed as reduction in cell viability after 24 hrs by MTT assay; type: cell-based; details: WI-38, 24 h
WISH = assay: Cytotoxicity against human WISH cells assessed as reduction in cell viability after 24 hrs by MTT assay; type: cell-based
[1] = Antioxidant activity assessed as superoxide dismutase-like activity by measuring inhibition of superoxide radical anion production at 2 uM by NBT reduction assay relative to control; type: functional
Escherichia coli = assay: Induction of Escherichia coli genomic DNA cleavage after 1 hr by agarose gel electrophoresis method
Homo sapiens = species on record: Homo sapiens; assay: Inhibition of PTK in human MCF7 cells at 1 uM preincubated for 2 hrs followed by poly-Glu-Tyr substrate addition by ELISA relative to control; type: cell-based

`COc1cc(OC)cc(-c2ccc(-c3ccc(C(=N)N)c(F)c3)s2)c1` showed a GI50 (CCRF-CEM) of 306 nM, a GI50 (HL-60(TB)) of 229 nM and a GI50 (RPMI-8226) of 246 nM. The GI50 (SR) was 224 nM, the GI50 (HOP-62) was 1610 nM and the GI50 (HOP-92) was 665 nM. It also gave a GI50 (NCI-H226) of 1730 nM, a GI50 (NCI-H23) of 1430 nM and a GI50 (NCI-H460) of 195 nM. For the same compound, the GI50 (NCI-H522) was 1200 nM, the GI50 (COLO 205) was 208 nM and the GI50 (HCC 2998) was 207 nM. The GI50 (HCT-116) was 173 nM, the GI50 (HCT-15) was 196 nM and the GI50 (HT-29) was 267 nM. The GI50 (KM12) was 352 nM, the GI50 (SW-620) was 212 nM and the GI50 (SF-539) was 165 nM. For the same compound, the GI50 (SNB-19) was 1030 nM, the GI50 (SNB-75) was 1300 nM and the GI50 (U-251) was 198 nM. It also gave a GI50 (Malme-3M) of 195 nM, a GI50 (SK-MEL-2) of 1860 nM and a GI50 (SK-MEL-28) of 176 nM. For the same compound, the GI50 (SK-MEL-5) was 956 nM, the GI50 (UACC-257) was 1850 nM and the GI50 (UACC-62) was 1440 nM. The GI50 (IGROV-1) was 484 nM, the GI50 (OVCAR-3) was 815 nM and the GI50 (OVCAR-8) was 1200 nM. It also gave a GI50 (NCI/ADR-RES) of 1590 nM, a GI50 (SK-OV-3) of 1640 nM and a GI50 (A498) of 1330 nM. It also gave a GI50 (ACHN) of 181 nM, a GI50 (CAKI-1) of 233 nM and a GI50 (RXF 393) of 449 nM. The GI50 (SN12C) was 712 nM, the GI50 (TK-10) was 1780 nM and the GI50 (UO-31) was 473 nM. The GI50 (DU-145) was 426 nM, the GI50 (Hs-578T) was 1470 nM and the GI50 (BT-549) was 1370 nM. The GI50 (MDA-MB-468) was 182 nM, the IC50 (WI-38) was 123000 nM and the IC50 (WISH) was 115000 nM. The inhibition [1] was 55.5%, the Activity (Escherichia coli) was “Dose-dependent effect” and the inhibition (Homo sapiens) was 74%.

`N=C(N)c1ccc(-c2ccc(-c3ccc(F)cc3)s2)cc1` showed a GI50 (CCRF-CEM) of 1820 nM, a GI50 (HL-60(TB)) of 679 nM and a GI50 (RPMI-8226) of 799 nM. For the same compound, the GI50 (SR) was 307 nM, the GI50 (HOP-62) was 1580 nM and the GI50 (HOP-92) was 1540 nM. For the same compound, the GI50 (NCI-H226) was 2190 nM, the GI50 (NCI-H23) was 1580 nM and the GI50 (NCI-H460) was 392 nM. The GI50 (NCI-H522) was 1870 nM, the GI50 (COLO 205) was 204 nM and the GI50 (HCC 2998) was 492 nM. For the same compound, the GI50 (HCT-116) was 1580 nM, the GI50 (HCT-15) was 252 nM and the GI50 (HT-29) was 323 nM. The GI50 (KM12) was 1340 nM, the GI50 (SW-620) was 386 nM and the GI50 (SF-539) was 1620 nM. The GI50 (SNB-19) was 1930 nM, the GI50 (SNB-75) was 1650 nM and the GI50 (U-251) was 457 nM. It also gave a GI50 (Malme-3M) of 1550 nM, a GI50 (SK-MEL-2) of 2050 nM and a GI50 (SK-MEL-28) of 1570 nM. For the same compound, the GI50 (SK-MEL-5) was 1600 nM, the GI50 (UACC-257) was 2580 nM and the GI50 (UACC-62) was 1650 nM. The GI50 (IGROV-1) was 1790 nM, the GI50 (OVCAR-3) was 1710 nM and the GI50 (OVCAR-8) was 2110 nM. It also gave a GI50 (NCI/ADR-RES) of 1770 nM, a GI50 (SK-OV-3) of 1610 nM and a GI50 (A498) of 1420 nM. For the same compound, the GI50 (ACHN) was 1560 nM, the GI50 (CAKI-1) was 1670 nM and the GI50 (RXF 393) was 1480 nM. It also gave a GI50 (SN12C) of 1590 nM, a GI50 (TK-10) of 1850 nM and a GI50 (UO-31) of 1580 nM. The GI50 (DU-145) was 1630 nM, the GI50 (Hs-578T) was 2160 nM and the GI50 (BT-549) was 1650 nM. The GI50 (MDA-MB-468) was 1260 nM, the IC50 (WI-38) was 197000 nM and the IC50 (WISH) was 232000 nM. For the same compound, the inhibition [1] was 59.6%, the Activity (Escherichia coli) was “Dose-dependent effect” and the inhibition (Homo sapiens) was 19 to 36%.
